{"source": "patent US20110172217A1", "about": "“RING-FUSED MORPHOLINE DERIVATIVE HAVING PI3K-INHIBITING ACTIVITY” (Shionogi & Co., Ltd., priority 2008, published 2011)", "key": {"[1]": {"target": "T1, CYP1A2 (Homo sapiens, UniProt P05177)", "T1 construct": "enzyme: pooled human liver microsome 0.2 mg protein/mL; from tissue; host or cells: pooled human liver microsomes", "T1 sequence (P05177 1-516)": "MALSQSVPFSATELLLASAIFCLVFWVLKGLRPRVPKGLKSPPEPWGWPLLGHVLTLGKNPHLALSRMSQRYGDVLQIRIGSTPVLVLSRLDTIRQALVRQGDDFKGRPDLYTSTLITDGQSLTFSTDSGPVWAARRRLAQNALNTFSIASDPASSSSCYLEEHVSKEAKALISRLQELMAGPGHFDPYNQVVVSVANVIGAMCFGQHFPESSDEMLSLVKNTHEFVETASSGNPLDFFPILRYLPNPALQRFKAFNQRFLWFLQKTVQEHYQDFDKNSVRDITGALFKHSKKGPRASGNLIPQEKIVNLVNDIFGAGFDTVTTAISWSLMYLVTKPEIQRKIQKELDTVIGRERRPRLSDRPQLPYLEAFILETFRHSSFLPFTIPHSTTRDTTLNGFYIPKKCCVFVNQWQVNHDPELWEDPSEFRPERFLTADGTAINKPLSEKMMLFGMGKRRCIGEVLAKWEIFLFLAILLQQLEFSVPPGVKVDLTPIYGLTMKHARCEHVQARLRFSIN", "test": "CYP inhibition test, O-de-ethylation of 7-ethoxyresorufin", "assay_type": "in vitro ADME", "details": "pooled human liver microsome; one of 5 kinds", "description": "(§1) O-de-ethylation of 7-ethoxyresorufin (CYP1A2), methyl-hydroxylation of tolbutamide (CYP2C9), 4′-hydroxylation of mephenyloin (CYP2C19), O-demethylation of dextromethorphan (CYP2D6), and hydroxylation of terfenadine (CYP3A4), which are typical substrate for metabolic reactions of human main CYP5 molecular species (CYP1A2, 2C9, 2C19, 2D6, and 3A4), were adopted as indexes.\n(§2) The reaction conditions are as follows: substrate: 0.5 μmol/L of ethoxyresorufin (CYP1A2), 100 μmol/L of tolbutamide (CYP2C9), 50 μmol/L of S-mephenyloin (CYP2C19), […] of dextromethorphan (CYP2D6), and 1 μmol/L of terfenadine (CYP3A4); reaction time; 15 minutes; reaction temperature: 37° C.; enzyme: pooled human liver microsome 0.2 mg protein/mL; test drug concentration: 1, 5, 10, and 20 μmol/L (4 points).\n(§3) In a 96-well plate, as a reaction solution, five kinds of substrates, a human liver microsome, and a test drug were added to 50 mmol/L Hepes buffer solution in the aforementioned ratio. A coenzyme NADPH was added to start a metabolic reaction, which is an index. After reacting at 37° C. for 15 minutes, a solution of methanol/acetonitrile (1/1 (v/v)) was added to quench the reaction. After centrifugation at 3000 rpm for 15 minutes, resorufin (CYP1A2 metabolite) in the supernatant was quantitated with a fluorescence multilabel counter, and hydroxylated tolbutamide (CYP2C9 metabolite), 4′-hydroxylated mephenyloin (CYP2C19 metabolite), […], terfenadine in alcohol form (CYP3A4 metabolite) were quantitated with LC/MS/MS.\n(§4) The case wherein only DMSO (a solvent which dissolved a drug) was added to a reaction system was defined as a control (100%). When a test drug solution was added, the remaining activity (%) at each concentration was calculated, and then IC50 was calculated with a concentration and an inhibition ratio by an inverse estimation using a logistic model."}, "[2]": {"target": "T2, CYP2D6 (Homo sapiens, UniProt P10635)", "T2 construct": "enzyme: pooled human liver microsome 0.2 mg protein/mL; from tissue; host or cells: pooled human liver microsomes", "T2 sequence (P10635 whole entry)": "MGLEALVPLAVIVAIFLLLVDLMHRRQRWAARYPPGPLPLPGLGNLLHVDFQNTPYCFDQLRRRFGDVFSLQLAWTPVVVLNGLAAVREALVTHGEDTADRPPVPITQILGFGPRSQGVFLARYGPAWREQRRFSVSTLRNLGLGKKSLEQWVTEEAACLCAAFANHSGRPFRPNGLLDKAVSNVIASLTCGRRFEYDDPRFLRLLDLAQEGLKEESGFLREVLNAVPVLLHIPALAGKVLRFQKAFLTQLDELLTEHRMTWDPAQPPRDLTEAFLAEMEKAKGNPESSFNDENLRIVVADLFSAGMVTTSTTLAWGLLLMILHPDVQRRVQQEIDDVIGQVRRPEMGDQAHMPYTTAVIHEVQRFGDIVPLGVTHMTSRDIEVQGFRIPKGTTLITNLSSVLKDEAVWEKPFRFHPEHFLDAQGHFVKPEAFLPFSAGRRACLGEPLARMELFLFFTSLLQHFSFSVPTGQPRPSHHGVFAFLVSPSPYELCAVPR", "test": "CYP inhibition test, O-demethylation of dextromethorphan", "assay_type": "in vitro ADME", "details": "pooled human liver microsome; one of 5 kinds", "description": "as §1, §2, §3, §4"}, "[3]": {"target": "T3, CYP3A4 (Homo sapiens, UniProt P08684)", "T3 construct": "enzyme: pooled human liver microsome 0.2 mg protein/mL; from tissue; host or cells: pooled human liver microsomes", "T3 sequence (P08684 whole entry)": "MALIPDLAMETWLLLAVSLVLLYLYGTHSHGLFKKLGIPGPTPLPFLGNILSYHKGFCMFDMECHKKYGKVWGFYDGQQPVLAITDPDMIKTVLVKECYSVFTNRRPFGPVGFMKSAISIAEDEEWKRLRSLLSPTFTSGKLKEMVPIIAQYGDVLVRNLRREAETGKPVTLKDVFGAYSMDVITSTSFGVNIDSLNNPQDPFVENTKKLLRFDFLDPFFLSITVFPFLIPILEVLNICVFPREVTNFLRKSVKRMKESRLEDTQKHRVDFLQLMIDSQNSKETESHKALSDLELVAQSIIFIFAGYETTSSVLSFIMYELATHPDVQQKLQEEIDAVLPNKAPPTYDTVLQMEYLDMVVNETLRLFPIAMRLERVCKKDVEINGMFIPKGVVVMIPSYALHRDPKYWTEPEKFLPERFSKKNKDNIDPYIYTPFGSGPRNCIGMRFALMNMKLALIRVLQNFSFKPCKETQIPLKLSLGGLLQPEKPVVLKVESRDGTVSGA", "test": "CYP inhibition test, hydroxylation of terfenadine", "assay_type": "in vitro ADME", "details": "pooled human liver microsome; one of 5 kinds", "description": "as §1, §2, §3, §4"}, "[4]": {"test": "Solubility test in artificial intestinal juice pH 6.8", "assay_type": "physicochemical", "details": "kinetic from dmso stock, artificial intestinal juice pH 6.8, 1% DMSO, 25° C.", "description": "The solubility of a compound was determined under a condition in which 1% DMSO was added. 10 mmol/L compound solution was prepared using DMSO, and then 6 μL of the compound solution was added to 594 μL of artificial intestinal juice in pH 6.8 (to 250 mL of 0.2 mol/L potassium dihydrogen phosphate reagent solution was added 118 mL of 0.2 mol/L NaOH reagent solution and water to provide a final volume of 1000 mL). After standing at 25° C. for 16 hours, the mixed solution was filtered with suction. The filtrate was diluted twice with methanol/water (1/1), and then a concentration in the filtration was measured with HPLC or LC/MS/MS by the absolute calibration method."}}, "data": [{"smiles": "O=C(O)COc1cccc(Nc2ccc3c(n2)N(C(=O)Nc2ccccc2)CCO3)c1", "note": "[Compound I-240]", "values": [{"measurement": "IC50", "setting": "[1]", "result": "> 20", "unit": "µM"}, {"measurement": "IC50", "setting": "[2]", "result": "> 20", "unit": "µM"}, {"measurement": "IC50", "setting": "[3]", "result": "> 20", "unit": "µM"}, {"measurement": "solubility at 16 h", "setting": "[4]", "result": "> 50", "unit": "µM"}]}]}
